Source: PMC4805082, “Seizure control by decanoic acid through direct AMPA receptor inhibition” (Brain, 2015)

Legend:
[1] = system: epileptiform activity (burst discharges) in hippocampal slices induced by pentylenetetrazol; experiment: In vitro seizure model, pentylenetetrazol-induced epileptiform activity in hippocampal slices; assay type: cell-based, rat; conditions: 1 mM; pentylenetetrazol 2 mM, K+ 6 mM
Protocol: Male Sprague-Dawley rats (postnatal Days 19–30) were sacrificed using an overdose of isoflurane or pentobarbitone (500 mg/kg). After decapitation the brain was rapidly removed, the hippocampus or entorhinal cortex-hippocampus slices was dissected from the brain and […] thick transverse slices were prepared on a VT1200S vibratome (Leica) or Vibratome (Vibratome® 1500 sectioning system, Intracell). The slicing was performed in ice-cold sucrose-based solution containing (in mM): 75 sucrose, 87 NaCl, 22 glucose, 2.5 KCl, 7 MgCl2, 1.25 NaH2PO4, 0.5 CaCl2 and 25 NaHCO3, pH 7.4, 315–330 mOsm equilibrated with 95% O2 plus 5% CO2. The slices were then stored in a continuously oxygenated humidified interface holding chamber containing oxygenated artificial CSF (in mM): 120 NaCl, 22 glucose, 2.5 KCl, 1.3 MgSO4, 1 NaH2PO4, 25 NaHCO3 and 2.5 CaCl2, pH 7.4 296 mOsm, where they recovered for at least 1 h before use.
During the experiment, slices were transferred from the interface chamber into a submerged recording chamber, designed to optimize wash-in and wash-out of drugs, and continuously perfused using gravity feed at 3–6 ml/min with prewarmed (36°C) oxygenated artificial CSF (95% O2, 5% CO2). Field potentials were recorded with a glass microelectrode (1–2 MΩ) filled with artificial CSF solution placed in stratum radiatum of CA1 and were filtered at 1 kHz and digitized at 2 kHz (using an npi EXT-02F extracellular amplifier recorded with WinEDR software). In the pentylenetetrazol model, the epileptiform (paroxysmal) activity was induced by application of pentylenetetrazol (2 mM) to the perfusate and [K^+] was increased (to 6 mM); in low-Mg^2+ model, the epileptiform activity was elicited by using Mg^2+-free artificial CSF. Once the frequency of the paroxysmal activity was stable for at least 10 min, compounds were applied to the perfusate for the following 40 min, and washed out for a remaining 20 min. The anticonvulsant effects were evaluated by measuring the change in the frequency of the discharges at minute intervals. The discharge frequency was then averaged every 5 min during the experiment and normalized to baseline. The compounds applied in this study included: 1% dimethyl sulphoxide (DMSO), acetone (10 mM, Sigma), (±)-sodium 3-hydroxybutyrate (BHB) (10 mM, Sigma), and decanoic acid (1 mM, Alfa Aesar Pty). Acetone and decanoic acids were prepared as 1000× stocks in DMSO, and BHB was prepared as 100× stock. Stocks were dissolved in artificial CSF to achieve their final concentrations during experiments, and where applicable, experiments included constant levels of DMSO.

[2] = parameters: method as in Wlaz et al., 2012; conditions: mice, gastric gavage 30 mmol/kg; ref Wlaz et al., 2012; cited from earlier work
[3] = parameters: method as in earlier work; conditions: average; children with intractable epilepsy on MCT diet; ref Haidukewych et al., 1982; Sills et al., 1986a; Dean et al., 1989; cited from earlier work
AMPA receptor GluA1 = target: T1, AMPA receptor GluA1 (Homo sapiens, UniProt P42261); experiment: Two-electrode voltage clamp, homomeric GluA1 AMPA receptor expressed in Xenopus oocytes; assay type: cell-based
T1 construct: expressed in transfected cells; host or cells: Xenopus laevis oocytes injected with cRNA
T1 sequence (P42261 19-906 isoform P42261-2 limits assumed): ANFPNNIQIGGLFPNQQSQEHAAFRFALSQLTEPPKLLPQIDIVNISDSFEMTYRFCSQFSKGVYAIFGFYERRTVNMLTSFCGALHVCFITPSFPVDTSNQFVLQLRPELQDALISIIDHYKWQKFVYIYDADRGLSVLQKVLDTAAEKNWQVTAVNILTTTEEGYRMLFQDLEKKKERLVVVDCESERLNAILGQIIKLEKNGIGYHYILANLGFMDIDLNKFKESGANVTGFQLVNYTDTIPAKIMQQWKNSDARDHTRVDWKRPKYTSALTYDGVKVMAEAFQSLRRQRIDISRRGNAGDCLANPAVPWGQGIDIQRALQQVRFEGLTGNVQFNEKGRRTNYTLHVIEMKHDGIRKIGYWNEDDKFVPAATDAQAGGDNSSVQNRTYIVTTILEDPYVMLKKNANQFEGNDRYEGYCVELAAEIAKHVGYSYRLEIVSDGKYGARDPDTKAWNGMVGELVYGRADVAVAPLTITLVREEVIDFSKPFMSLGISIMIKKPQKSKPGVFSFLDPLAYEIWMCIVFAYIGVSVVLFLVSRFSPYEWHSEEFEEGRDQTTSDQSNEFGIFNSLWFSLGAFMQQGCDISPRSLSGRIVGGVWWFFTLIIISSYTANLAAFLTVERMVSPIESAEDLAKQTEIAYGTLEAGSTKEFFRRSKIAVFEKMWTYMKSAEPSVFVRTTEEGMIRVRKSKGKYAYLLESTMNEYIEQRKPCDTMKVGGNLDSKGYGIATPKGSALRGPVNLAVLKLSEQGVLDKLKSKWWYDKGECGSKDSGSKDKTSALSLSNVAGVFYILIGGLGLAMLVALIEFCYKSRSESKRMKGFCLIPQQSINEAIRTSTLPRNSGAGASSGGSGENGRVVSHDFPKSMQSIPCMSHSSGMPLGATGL
Protocol: The AMPA receptor (flip isoform) cDNAs inserted in a SP6 polymerase expression vector (pSP6T) were a generous gift from Prof. Ralf Schoepfer (NPP, UCL). RNA was transcribed in vitro from MluI linearized transcripts using the SP6 Promega RiboMAX® RNA synthesis kit according to manufacturer’s protocols except for the addition of 0.75 mM capping nucleotide m^7G(5’)ppp(5’)G (Promega) and 1.6 mM GTP. cRNA concentrations and integrity were estimated by the intensity of fluorescence bands in RNA denaturating gels. AMPA receptor cRNAs were mixed in a nominal 1:1 ratio and ∼5 ng was injected per oocyte.
Xenopus laevis oocytes were purchased from the European Xenopus Resource Centre, University of Portsmouth. Stage V to VI oocytes were mechanically dissected and then subjected to gentle shaking for ∼30–50 min at room temperature with modified Barth’s solution (in mM): 88 NaCl, 1 KCl, 2.4 NaHCO3, 0.82 MgCl2, 0.77 CaCl2, 15 Tris-Cl, adjusted to pH 7.4 with NaOH (Sigma-Aldrich), supplemented with 50 IU/ml penicillin and 50 µg/ml streptomycin (Invitrogen) and 50 µg/ml tetracycline (Sigma-Aldrich) and 1% collagenase (type 1A). Healthy oocytes were manually defolliculated and the injections of cRNA for homomeric subunits alone (GluA1), or heteromeric mixtures of two subunits together (GluA1/GluA2 or GluA2/GluA3) were made using an automated Drummond Nanoinject II injector. The oocytes were then incubated at 17°C in modified Barth’s solution for at least 48 h before use in electrophysiological recordings.
Experiments were performed at room temperature (∼21–23°C). An oocyte was placed in a recording chamber (0.3–0.5 ml volume) and perfused with ND96 solution (96 mM NaCl, 2 mM KCl, 1.8 mM CaCI2, 1 mM MgCl2, 5 mM HEPES, with pH adjusted to 7.5). Current and voltage electrodes were filled with 300 mM KCl and made from thin-walled borosilicate glass (GC150TF-7.5, Harvard Apparatus) using a PC-10 electrode puller (Narashige Instruments) and had resistances of 0.5–2 MΩ. Oocytes were voltage-clamped to a holding potential of −50 mV or −60 mV using a Turbo TEC-03 amplifier (npi electronics). […]

In the case of `CCCCCCCCCC(=O)O` [decanoic acid], the “effect on epileptiform activity” value [1] is listed as “completely blocked”, the brain concentration [2] is listed as “up to 240 µM” and the “brain concentration as share of serum levels” value [2] is listed as 60–80%. For the same compound, the serum concentration [3] was 156.7 µM and the IC50 (AMPA receptor GluA1) was 2090 µM.
